Columns and labels:
cMLCK [1] = target: T1, cMLCK (Homo sapiens, UniProt Q32MK0); experiment: cMLCK activity, ADP-Glo kinase assay; format: biochemical; details: for cMLCK activity compared with the compound of Synthesis Example 1: ADP-Glo kinase assay, relative to Synthesis Example 1 (LEU-0992); for cMLCK activation action, dose dependence: ADP-Glo assay; for specificity for cMLCK: versus smMLCK and skMLCK
T1 construct: BTN (vendor prefix; by own knowledge, biotinylated); purchased Carna Bioscience #02-460-20N
Protocol: The cMLCK activation action by 8-hydroxyquinoline compounds was measured by using the ADP-Glo kinase assay (Promega) according to the manufacturer's protocol.
(§1) Purchased purified human cMLCK (BTN-cMLCK, #02-460-20N, Carna Bioscience) as well as in-house purified calmodulin (NM 006888) and cardiac myosin regulatory light chain (MLC2v) (NM 000432) were used to perform phosphorylation to thereby establish an in vitro kinase assay system for measuring cMLCK activity according to the ADP-Glo assay (Promega) or Kumagai method. This system was then applied to high-throughput screening (HTS). The HTS was performed by using multiple domestic compound libraries (compound concentration: 10 μM), and structural development of candidate compounds was performed, thereby developing cMLCK activators based on the 8-hydroxyquinoline (8HQ) skeleton.

[2] = phase 3 clinical trial; cited from earlier work
[3] = test system: wild-type human iPS cardiomyocytes; experiment: intracellular calcium dynamics (Cal-520, FDSS kinetic plate imager); format: cell-based; details: wild-type iPSC-CMs, various concentrations, with pacing
Protocol: CTAs: average changes of calcium transient amplitude at systole, PWD50: pulse width duration measured at 50% CTAs
Wild-type iPSC-CMs were seeded on a 96-well plate at a density of 5×10^4 cells/well and cultured in DMEM with 10% FBS for 24 hours. Subsequently, Cal-520 (ab171868, Abcam) was then added to a final concentration of 5 μM, and the cells were cultured for an additional hour. After removing the medium and washing with HHBS buffer, the buffer was replaced with FluoroBrite DMEM containing various concentrations of LEUO-1154, isoproterenol (positive control group: catecholamine stimulation), or DMSO (negative control group). Intracellular calcium dynamics was then measured with pacing by using an FDSS/ρCell kinetic plate imager (Hamamatsu Photonics K. K.).

cMLCK [4] = target: T1, cMLCK; experiment: enzymatic study (Michaelis-Menten kinetics) of cMLCK; format: biochemical
Protocol: as §1

[5] = target: T2, human skeletal muscle-type MLCK (skMLCK) (Homo sapiens, UniProt Q9H1R3); experiment: specificity: in-vitro kinase reaction with skMLCK and its substrate MYLPF, ADP-Glo assay; format: biochemical; details: skMLCK with substrate MYLPF
T2 construct: made in house
Protocol: (§2) Next, the specificity of the two 8HQ compounds (LEU-1142 and LEU-1170) for human smooth muscle-type MLCK (smMLCK, NM 053025) and human skeletal muscle-type MLCK (skMLCK, NM 033118), which are cMLCK family proteins, was examined (FIGS. 7-1 and 7-2). In-vitro kinase reactions were performed using smMLCK and its substrate MYL9 (NM 006097), and skMLCK and its substrate MYLPF (NM 013292), which had been all purified in-house, and their activity was measured according to the ADP-Glo assay.

[6] = target: T3, human smooth muscle-type MLCK (smMLCK) (Homo sapiens, UniProt Q15746); experiment: specificity: in-vitro kinase reaction with smMLCK and its substrate MYL9, ADP-Glo assay; format: biochemical; details: smMLCK with substrate MYL9, ADP-Glo assay
T3 construct: made in house
Protocol: as §2

cMLCK [7] = target: T1, cMLCK; experiment: phosphorylation of MLC2v by phos-tag PAGE; format: biochemical

## COc1ccc(C(Nc2ccccn2)c2cc(Cl)c3cccnc3c2O)cc1[N+](=O)[O-] (stereo not drawn) [LEU-0997, 5-chloro-7-[(4-methoxy-3-nitrophenyl) (pyridin-2-ylamino)methyl]quinolin-8-ol]
cMLCK [1]
  cMLCK activity compared with the compound of Synthesis Example 1: equivalent

## COc1ccc(C(NC(=O)C(C)C)c2cc([N+](=O)[O-])c3cccnc3c2O)cc1 (stereo not drawn) [LEU-1220, N-[(8-hydroxy-5-nitroquinolin-7-yl) (4-methoxyphenyl)methyl]isobutyramide]
cMLCK [1]
  cMLCK activity compared with the compound of Synthesis Example 1: equivalent

## Oc1c(C(c2ccc(C(F)(F)F)cc2)N2CCCCC2)ccc2cccnc12 (stereo not drawn) [LEU-0943, 7-(piperidin-1-yl [4-(trifluoromethyl)phenyl]methyl}quinolin-8-ol]
cMLCK [1]
  cMLCK activity compared with the compound of Synthesis Example 1: weaker

## CCCCC(=O)NC(c1ccc(OC)cc1)c1ccc2cccnc2c1O (stereo not drawn) [LEU-1128, N-[(8-hydroxyquinolin-7-yl) (4-methoxyphenyl)methyl]pentanamide]
cMLCK [1]
  cMLCK activity compared with the compound of Synthesis Example 1: weaker

## COC(=O)N1CCN(Cc2cccc(NC(=O)Nc3ccc(C)nc3)c2F)CC1 [Omecamtiv mecarbil (OM), Omecamtiv mecarbil]
[2]
  time to onset of heart failure: prolonging the time to onset of heart failure without worsening prognosis

## CC(C)NCC(O)c1ccc(O)c(O)c1 (stereo not drawn) [isoproterenol, reference compound]
[3]
  calcium dynamics: enhanced calcium dynamics

## Oc1c(C(Nc2nccs2)c2ccccc2)ccc2cccnc12 (stereo not drawn) [LEU-1008, 7-[phenyl(thiazol-2-ylamino)methyl]quinolin-8-ol]
cMLCK [1]
  cMLCK activity compared with the compound of Synthesis Example 1: equivalent

## COc1ccc(C(NC(C)=O)c2cc([N+](=O)[O-])c3cccnc3c2O)cc1 (stereo not drawn) [LEU-0990, N-[(8-hydroxy-5-nitroquinolin-7-yl) (4-methoxyphenyl)methyl]acetamide]
cMLCK [1]
  cMLCK activity compared with the compound of Synthesis Example 1: weaker

## CCCCC(=O)NC(c1ccc(-n2ccnc2)cc1)c1cc([N+](=O)[O-])c2cccnc2c1O (stereo not drawn) [LEU-1142, N-{[4-(1H-imidazol-1-yl)phenyl] (8-hydroxy-5-nitroquinolin-7-yl)methyl}pentanamide]
cMLCK [4]
  effect on Km: did not affect Km
[5]
  specificity for skMLCK: Neither compound showed specificity
cMLCK [1]
  cMLCK activation action, dose dependence: dose-dependent
  specificity for cMLCK: high specificity for cMLCK
[6]
  specificity for smMLCK: Neither compound showed specificity
cMLCK [7]
  phosphorylation of MLC2v: increase the phosphorylation of MLC2v

## O=[N+]([O-])c1cccc(C(Nc2nccs2)c2ccc3cccnc3c2O)c1 (stereo not drawn) [LEU-0944, 7-[(3-nitrophenyl) (thiazol-2-ylamino)methyl]quinolin-8-ol]
cMLCK [1]
  cMLCK activity compared with the compound of Synthesis Example 1: equivalent

## CCCCC(=O)NC(c1ccc(N2CCOCC2)nc1)c1cc([N+](=O)[O-])c2cccnc2c1O (stereo not drawn) [LEU-1170, N-[(8-hydroxy-5-nitroquinolin-7-yl) (6-morpholinopyridin-3-yl)methyl]pentanamide]
cMLCK [4]
  effect on Km: did not affect Km
[5]
  specificity for skMLCK: Neither compound showed specificity
cMLCK [1]
  cMLCK activation action, dose dependence: dose-dependent
  specificity for cMLCK: high specificity for cMLCK
[6]
  specificity for smMLCK: Neither compound showed specificity
cMLCK [7]
  phosphorylation of MLC2v: increase the phosphorylation of MLC2v

## Oc1cccnc1NC(c1ccc(F)cc1)c1ccc2cccnc2c1O (stereo not drawn) [LEU-0942, 7-{(4-fluorophenyl) [(3-hydroxypyridin-2-yl)amino]methyl}quinolin-8-ol]
cMLCK [1]
  cMLCK activity compared with the compound of Synthesis Example 1: weaker

## Oc1ccccc1C(Nc1nccs1)c1ccc2cccnc2c1O (stereo not drawn) [LEU-0945, 7-[(2-hydroxyphenyl) (thiazol-2-ylamino)methyl]quinolin-8-ol]
cMLCK [1]
  cMLCK activity compared with the compound of Synthesis Example 1: weaker

## Oc1c(C(Nc2ccccn2)c2cccnc2)cc(Cl)c2cccnc12 (stereo not drawn) [LEU-0998, 5-chloro-7-[(pyridin-2-ylamino) (pyridin-3-yl)methyl]quinolin-8-ol]
cMLCK [1]
  cMLCK activity compared with the compound of Synthesis Example 1: weaker

## CCC(=O)NC(c1ccc(OC)cc1)c1cc([N+](=O)[O-])c2cccnc2c1O (stereo not drawn) [LEU-0993]
cMLCK [1]
  cMLCK activity compared with the compound of Synthesis Example 1: equivalent

## Oc1c(CN2CCC(Cc3ccccc3)CC2)cc(Cl)c2cccnc12 [LEU-0999, 7-[(4-benzylpiperidin-1-yl)methyl]-5-chloroquinolin-8-ol]
cMLCK [1]
  cMLCK activity compared with the compound of Synthesis Example 1: weaker

## CCCCC(=O)NC(c1ccc(OC)cc1)c1cc(Cl)c2cccnc2c1O (stereo not drawn) [LEU-1018, N-[(5-chloro-8-hydroxyquinolin-7-yl) (4-methoxyphenyl)methyl]pentanamide]
cMLCK [1]
  cMLCK activity compared with the compound of Synthesis Example 1: weaker
